Test results reported in ChEMBL document CHEMBL5096184, “Structure activity relationship in β-carboline derived anti-malarial agents” (Eur J Med Chem, 2021).
Converted amounts (≈) assume the structure as drawn. Values belong to the molecule of their own block, whether it stands above or below them.

What was measured:
Plasmodium falciparum [1] = assay: Antimalarial activity against Plasmodium falciparum W2 (MRA-157) incubated for 72 hrs; format: functional, organism-based
Plasmodium falciparum [2] = assay: Antimalarial activity against chloroquine sensitive Plasmodium falciparum K1; format: functional, organism-based
Plasmodium falciparum [3] = assay: Antimalarial activity against chloroquine sensitive Plasmodium falciparum 3D7; format: functional, organism-based
Trypanosoma brucei = assay: Antitrypanosomal activity against Trypanosoma brucei rhodesiense STIB 900; format: functional, organism-based
Trypanosoma cruzi = assay: Antitrypanosomal activity against Trypanosoma cruzi Tulahuen C2C4; format: functional, organism-based
Plasmodium falciparum [4] = assay: Antimalarial activity against Plasmodium falciparum K1; format: functional, organism-based
Leishmania donovani = assay: Antileishmanial activity against Leishmania donovani MHOM-ET-67/L82; format: functional, organism-based
[5] = Cytotoxicity against rat L6 cells assessed as reduction in cell viability; format: toxicity, cell-based
[6] = Selectivity index, ratio of IC50 for rat L6 cells to IC50 for Plasmodium falciparum K1; format: toxicity; conditions: L6 cells versus Plasmodium falciparum K1, read-out: Ratio IC50
Plasmodium falciparum [7] = assay: Antimalarial activity against chloroquine-resistant Plasmodium falciparum; format: functional, organism-based
Plasmodium falciparum [8] = assay: Antimalarial activity against Plasmodium falciparum D6; format: functional, organism-based
Plasmodium falciparum [9] = assay: Antimalarial activity against multi drug resistant Plasmodium falciparum W2; format: functional, organism-based
Plasmodium berghei = assay: Antiplasmodial activity against Plasmodium berghei assessed as reduction in parasitemia; format: functional, organism-based
Plasmodium falciparum [10] = assay: Antiplasmodial activity against GHA chloroquine sensitive Plasmodium falciparum; format: functional, organism-based
[11] = Cytotoxicity against human MRC5 cells; format: toxicity, cell-based
Plasmodium falciparum [12] = assay: Antiplasmodial activity against chloroquine sensitive Plasmodium falciparum FCA 20/Ghana; format: functional, organism-based
Plasmodium falciparum [13] = assay: Antiplasmodial activity against chloroquine sensitive Plasmodium falciparum FCB1-R/Colombia; format: functional, organism-based
Plasmodium falciparum [14] = assay: Antiplasmodial activity against chloroquine sensitive Plasmodium falciparum W2/Indochina; format: functional, organism-based; conditions: Plasmodium falciparum, W2/Indochina
[15] = Plasmodium falciparum, FCA 20/Ghana

Structure (SMILES): COC(=O)c1cc2c3c(c1)c1ccccc1n3C=C(C)OC2C1C=CCCC1 (stereo not drawn)
IC50 (Plasmodium falciparum [2]): > 5 µM
IC50 (Plasmodium falciparum [3]): 1.64 µM

Structure (SMILES): COc1ccc2[nH]cc(C3NCCc4c3[nH]c3ccc(OC)cc43)c2c1 (stereo not drawn)
IC50 (Plasmodium falciparum [7]): 8 µM

Structure (SMILES): COC(=O)c1cc2c3c(c1)c1ccccc1n3C=C(C)OC2C1=CCCC=C1 (stereo not drawn)
IC50 (Plasmodium falciparum [2]): > 5 µM
IC50 (Plasmodium falciparum [3]): > 5 µM

Structure (SMILES): COC(=O)C1Cc2c([nH]c3ccccc23)C(c2c[nH]c3ccccc23)=N1 (stereo not drawn)
IC50 (Plasmodium falciparum [7]): > 29 µM

Structure (SMILES): COc1ccc(C2NCCc3c2[nH]c2ccccc32)cc1 (stereo not drawn)
IC50 (Plasmodium falciparum [9]): 0.7 µM

Structure (SMILES): Fc1ccc(C2NCCc3c2[nH]c2ccccc32)cc1 (stereo not drawn)
IC50 (Plasmodium falciparum [1]): 1.1 µM

Structure (SMILES): COC(=O)c1cc2c3c(c1)c1ccccc1n3C=C(C)OC2CC=C(C)C (stereo not drawn)
IC50 (Plasmodium falciparum [2]): > 5 µM
IC50 (Plasmodium falciparum [3]): > 5 µM

Structure (SMILES): Clc1ccc(C2NCCc3c2[nH]c2ccccc32)cc1 (stereo not drawn)
IC50 (Plasmodium falciparum [1]): 4.8 µM

Structure (SMILES): Oc1ccc2[nH]cc(-c3nccc4c3[nH]c3ccc(O)cc34)c2c1
IC50 (Plasmodium falciparum [7]): 11 µM

Structure (SMILES): CC1NCCc2c1[nH]c1ccc(Cl)cc21 (stereo not drawn)
IC50 (Plasmodium falciparum [1]): 4.2 µM

Structure (SMILES): C=C(C#N)C1OC(C)=Cn2c3ccccc3c3cc(C(=O)OC)cc1c32 (stereo not drawn)
IC50 (Plasmodium falciparum [3]): > 5 µM

Structure (SMILES): CN(C)c1ccc(C2NCCc3c2[nH]c2ccccc32)cc1 (stereo not drawn)
IC50 (Plasmodium falciparum [1]): 3.9 µM

Structure (SMILES): c1ccc2c(C3NCCc4c3[nH]c3ccccc43)c[nH]c2c1 (stereo not drawn)
IC50 (Plasmodium falciparum [7]): 5.1 µM

Structure (SMILES): COC(=O)C1Cc2c([nH]c3ccccc23)C(c2c[nH]c3ccccc23)N1 (stereo not drawn)
IC50 (Plasmodium falciparum [7]): 13.6 µM

Structure (SMILES): c1ccc2c(-c3nccc4c3[nH]c3ccccc34)c[nH]c2c1
IC50 (Plasmodium falciparum [7]): 14.4 µM

Structure (SMILES): C[n+]1ccc2c(c1)[nH]c1ccc(Br)cc12
IC50 (Leishmania donovani): > 223 µM

Structure (SMILES): CC1NCCc2c1[nH]c1ccccc21 (stereo not drawn) [TETRAHYDROHARMAN]
IC50 (Plasmodium falciparum [9]): 1.4 µM

Structure (SMILES): COc1ccc2[nH]cc(-c3nccc4c3[nH]c3ccc(OC)cc34)c2c1
IC50 (Plasmodium falciparum [7]): 4.7 µM

Structure (SMILES): C=CCC1OC(C)=Cn2c3ccccc3c3cc(C(=O)OC)cc1c32 (stereo not drawn)
IC50 (Plasmodium falciparum [2]): > 5 µM
IC50 (Plasmodium falciparum [3]): > 5 µM

Structure (SMILES): C/C=C1\CN2CCc3c([nH]c4ccccc34)[C@@H]2C[C@@H]1Cc1nccc2c1[nH]c1ccccc12
IC50 (Plasmodium falciparum [13]): < 2 µM
IC50 (Plasmodium falciparum [14]): 0.594 µM
IC50 (Plasmodium falciparum [12]; [15]): 1.52 µM

Structure (SMILES): Cc1ccc(C2NCCc3c2[nH]c2ccccc32)cc1 (stereo not drawn)
IC50 (Plasmodium falciparum [9]): 7.6 µM

Structure (SMILES): O=C(O)c1cc2c([nH]c3ccccc32)c(-c2c[nH]c3ccccc23)n1
IC50 (Plasmodium falciparum [7]): > 3.1 µM

More lines, main results first:

IC50 (Plasmodium falciparum [1]): 11.3 µM
Structure (SMILES): COc1cc(C2NCCc3c2[nH]c2ccccc32)c([N+](=O)[O-])cc1OC (stereo not drawn)

IC50 (Trypanosoma brucei): 4.5 µM
IC50 (Trypanosoma cruzi): 12.6 µM
IC50 (Plasmodium falciparum [4]): 0.459 µM
IC50 (Leishmania donovani): 20.4 µM
Structure (SMILES): CCCc1cccc(-[n+]2ccc3c(c2)[nH]c2ccc(Br)cc23)c1
IC50 [5]: 27.5 µM
selectivity ratio [6]: 60

IC50 (Plasmodium falciparum [4]): 0.35 µM
Structure (SMILES): c1ccc2c(c1)[nH]c1c(N3CCC(N4CCCCCC4)CC3)nccc12

IC50 (Plasmodium falciparum [8]): 0.2 µg/mL (≈ 0.52 µM)
Structure (SMILES): O[C@]12C=C[C@@H]3CCN(CCCC/C=C\CC1)C[C@@]31C[C@@H]3CCCCCCN3[C@H]12

IC50 (Plasmodium falciparum [8]): 0.017 µg/mL (≈ 0.041 µM)
Structure (SMILES): [O-][N+]12CCCC/C=C\[C@H]1C[C@]13C[N@@+]4([O-])CCCC/C=C\CC[C@](O)(C=C[C@@H]1CC4)[C@@H]32 (stereo partly drawn)

IC50 (Plasmodium falciparum [4]): 1.2 µM
Structure (SMILES): c1ccc2c(c1)[nH]c1c(N3CCCCC3)nccc12

IC50 (Plasmodium falciparum [1]): 12.6 µM
Structure (SMILES): FC(F)(F)c1ccc(C2NCCc3c2[nH]c2ccccc32)cc1 (stereo not drawn)

IC50 (Plasmodium berghei): < 5 µg/mL
Structure (SMILES): COC(=O)[C@@H]1Cc2c([nH]c3ccccc23)[C@H](c2cccs2)N1

IC50 (Plasmodium falciparum [10]): 25 µM
Structure (SMILES): O=C1N[C@@H](Cc2c[nH]c3ccccc23)C(=O)N2C(c3ccc4c(c3)OCO4)c3[nH]c4ccccc4c3C[C@H]12 (stereo partly drawn)
IC50 [11]: 35 µM

IC50 (Plasmodium falciparum [4]): 0.39 µM
Structure (SMILES): c1ccc2c(c1)[nH]c1c(N3CCC(N4CCCCC4)CC3)nccc12

IC50 (Plasmodium falciparum [4]): 1.2 µM
Structure (SMILES): CCN(CC)CCC(C)Nc1nccc2c1[nH]c1ccc(F)cc12 (stereo not drawn)

IC50 (Plasmodium falciparum [1]): 29.2 µM
Structure (SMILES): COc1ccc(OC)c(C2NCCc3c2[nH]c2ccccc32)c1 (stereo not drawn)

IC50 (Plasmodium falciparum [4]): 0.41 µM
Structure (SMILES): CCN(CC)C1CCN(c2nccc3c2[nH]c2ccccc23)CC1

IC50 (Plasmodium berghei): < 5 µg/mL
Structure (SMILES): CCCCCC[C@@H]1N[C@H](C(=O)OC)Cc2c1[nH]c1ccccc21

IC50 (Plasmodium falciparum [12]): 25.9 µM
IC50 (Plasmodium falciparum [12]; [15]): 17 µM
Structure (SMILES): CN1CCc2c3n(c4ccccc24)C(O)C[C@H](C2=CCOC2=O)C[C@@H]31 (stereo partly drawn)

IC50 (Plasmodium falciparum [4]): 0.45 µM
Structure (SMILES): c1ccc2c(c1)[nH]c1c(N3CCC(N4CCCC4)CC3)nccc12

IC50 (Plasmodium berghei): < 5 µg/mL
Structure (SMILES): COC(=O)[C@@H]1Cc2c([nH]c3ccccc23)[C@@H](c2ccc3c(c2)OCO3)N1

IC50 (Plasmodium falciparum [4]): 4.59 µM
Structure (SMILES): c1ccc2c(c1)[nH]c1c(N3CCOCC3)nccc12

IC50 (Plasmodium falciparum [1]): 47.7 µM
Structure (SMILES): O=[N+]([O-])c1ccccc1C1NCCc2c1[nH]c1ccccc21 (stereo not drawn)

IC50 (Plasmodium falciparum [1]): > 81.1 µM
Structure (SMILES): COc1ccc(C2NCCc3c2[nH]c2ccccc32)cc1OC (stereo not drawn)

IC50 (Plasmodium berghei): < 5 µg/mL
Structure (SMILES): COC(=O)[C@@H]1Cc2c([nH]c3ccccc23)[C@H](c2ccc3c(c2)OCO3)N1

IC50 (Plasmodium falciparum [4]): 0.42 µM
Structure (SMILES): CCN(CC)CCC(C)Nc1nccc2c1[nH]c1ccccc12 (stereo not drawn)

IC50 (Plasmodium falciparum [8]): 0.082 µg/mL (≈ 0.212 µM)
Structure (SMILES): O[C@]12C=C[C@@H]3CCN(CCCCCCCC1)C[C@@]31C[C@@H]3CCCCCCN3[C@H]12
